Measured values: PMC10999543, “Identification of kinase modulators as host-directed therapeutics against intracellular methicillin-resistant Staphylococcus aureus” (Frontiers in Cellular and Infection Microbiology, 2024)
Like-named read-outs stand apart in the source and are kept apart here.

Experiments:
[1] = tested on: intracellular MRSA; type: cell-based, Staphylococcus aureus; details: for %GFP+ rep 1 / z-scoreMRSA+ rep 1: replicate 1; for %GFP+ rep 2 / z-scoreMRSA+ rep 2: replicate 2; for %GFP+ rep 3 / z-scoreMRSA+ rep 3: replicate 3; for z-scoreMRSA+ mean: mean of 3 replicates
Outline: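 HeLa cells were infected with GFP-expressing MRSA (mean MOI 6.8) for 1 h, treated with 30 µg/ml gentamicin for 15 min, then incubated overnight at 37°C with kinase inhibitors and 5 µg/ml gentamicin. Flow cytometry gave % GFP-positive cells, with cell count as viability. Hits were z-score ≤ -2 (infection) and ≥ -3 (count) versus DMSO.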

[2] = tested on: HeLa cells; assay: Compound screen by flow cytometry: HeLa cell count as surrogate readout of cell viability (z-scoreHeLa); type: cell-based, human; details: for cell count rep 1 / z-scoreHeLa rep 1: replicate 1; for cell count rep 2 / z-scoreHeLa rep 2: replicate 2; for cell count rep 3 / z-scoreHeLa rep 3: replicate 3; for z-scoreHeLa mean: mean of 3 replicates
Outline: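 The viability surrogate was the count of fixed HeLa cells by flow cytometry, converted to z-scores against DMSO controls with values deviating two-fold excluded. Before counting, cells had been infected with MRSA for 1 h and cleared of extracellular bacteria with gentamicin. They were then exposed overnight to kinase inhibitors in triplicate.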

[3] = PKIS compound screen raw data, MRSA-infected HeLa cells
[4] = PKIS compound screen, MRSA-infected HeLa cells
[5] = PKIS compound screen, Yes/No call
[6] = PKIS compound screen, Yes/No call (effect without cell death)
[7] = PKIS compound screen, Yes/No call on z-scoreMRSA+
[8] = PKIS compounds raw data, MRSA-infected HeLa cells
[9] = PKIS compound screen raw data, HeLa cell count
[10] = PKIS compound screen, HeLa cell count
[11] = PKIS compound screen, Yes/No call on z-scoreHeLa
[12] = PKIS compounds raw data, HeLa cell count
[13] = Yes/No: effect without cell death
[14] = compound screen, MRSA-infected HeLa cells
[15] = compound screen, HeLa cell count

Row | Structure (SMILES) | %GFP+ rep 1 [1, 3] [%] | %GFP+ rep 2 [1, 3] [%] | %GFP+ rep 3 [1, 3] [%] | z-scoreMRSA+ mean [1, 4] | z-scoreMRSA+ rep 1 [1, 4] | z-scoreMRSA+ rep 2 [1, 4] | z-scoreMRSA+ rep 3 [1, 4] | effect [1, 5] | hit [1, 6] | effect [1, 7] | z-scoreMRSA+ mean ([1]; PKIS compound screen) | z-scoreMRSA+ rep 1 ([1]; PKIS compound screen) | cell count rep 1 [2, 9] | cell count rep 2 [2, 9] | cell count rep 3 [2, 9] | z-scoreHeLa mean [2, 10] | z-scoreHeLa rep 1 [2, 10] | z-scoreHeLa rep 2 [2, 10] | z-scoreHeLa rep 3 [2, 10] | cell death [2, 11] | also measured
1 | Cc1cc(NCC(c2ccccc2)c2ccccc2)nc(NCc2ccc(C(F)(F)F)cc2)n1 [GW497681X] | 20.1 | 18.7 | 19.8 | -0.08 | 0.35 | -0.19 | -0.39 | No | No | No | -1.09 | -0.81 | 17665 | 6230 | 5782 | -2.65 | -2.12 | -3.27 | -2.56 | No | z-scoreMRSA+ rep 2 ([1]; PKIS compound screen): -1.24; z-scoreMRSA+ rep 3 ([1]; PKIS compound screen): -1.24; %GFP+ rep 1 [1, 8]: 22.9%; %GFP+ rep 2 [1, 8]: 19.6%; %GFP+ rep 3 [1, 8]: 20.6%; cell death [2, 5]: No; z-scoreHeLa mean ([2]; PKIS compound screen): -2.45; z-scoreHeLa rep 1 ([2]; PKIS compound screen): -2.37; z-scoreHeLa rep 2 ([2]; PKIS compound screen): -3.07; z-scoreHeLa rep 3 ([2]; PKIS compound screen): -1.91; cell count rep 1 [2, 12]: 2106; cell count rep 2 [2, 12]: 1381; cell count rep 3 [2, 12]: 2577
2 | COc1cc(C)c(N(C)C(=O)CN(C)C)cc1Nc1nc(Nc2cccc(F)c2C(N)=O)c2cc[nH]c2n1 [GSK2219385A] | 15.2 | 16.3 | 17.5 | -0.74 | -0.84 | -0.67 | -0.70 |  | No | No |  |  | 14421 | 25742 | 38560 | -0.95 | -0.86 | -1.69 | -0.31 | No | 
3 | COc1ccc(CNC(=O)NC2CCN(c3ccnc(Nc4ccc(OC)cc4)n3)C2)cc1 (stereo not drawn) [GSK1379727A] |  |  |  |  |  |  |  | No | No |  | 1.14 | 0.96 |  |  |  |  |  |  |  |  | z-scoreMRSA+ rep 2 ([1]; PKIS compound screen): 1.05; z-scoreMRSA+ rep 3 ([1]; PKIS compound screen): 1.40; %GFP+ rep 1 [1, 8]: 32.0%; %GFP+ rep 2 [1, 8]: 31.5%; %GFP+ rep 3 [1, 8]: 34.8%; cell death [2, 5]: No; z-scoreHeLa mean ([2]; PKIS compound screen): 0.68; z-scoreHeLa rep 1 ([2]; PKIS compound screen): 0.99; z-scoreHeLa rep 2 ([2]; PKIS compound screen): 0.43; z-scoreHeLa rep 3 ([2]; PKIS compound screen): 0.62; cell count rep 1 [2, 12]: 7697; cell count rep 2 [2, 12]: 6658; cell count rep 3 [2, 12]: 6574
4 | COc1cccc(-n2ncc3c(N/N=C/c4ccncc4)ncnc32)c1 [GW784752X] |  |  |  |  |  |  |  | No | No |  | -0.71 | -0.44 |  |  |  |  |  |  |  |  | z-scoreMRSA+ rep 2 ([1]; PKIS compound screen): -0.63; z-scoreMRSA+ rep 3 ([1]; PKIS compound screen): -1.06; %GFP+ rep 1 [1, 8]: 11.8%; %GFP+ rep 2 [1, 8]: 11.6%; %GFP+ rep 3 [1, 8]: 12.3%; cell death [2, 5]: No; z-scoreHeLa mean ([2]; PKIS compound screen): -0.20; z-scoreHeLa rep 1 ([2]; PKIS compound screen): -0.77; z-scoreHeLa rep 2 ([2]; PKIS compound screen): -0.44; z-scoreHeLa rep 3 ([2]; PKIS compound screen): 0.60; cell count rep 1 [2, 12]: 3928; cell count rep 2 [2, 12]: 3683; cell count rep 3 [2, 12]: 8225
5 | Fc1cc(Cl)ccc1Nc1ccnc2cc(-c3ccc(CN4CCOCC4)o3)ccc12 [GW560109X] | 14.2 | 18.0 | 17.4 | -0.89 | -1.22 | -0.38 | -1.05 | No | No | No | 0.05 | 0.36 | 37673 | 25490 | 23726 | 0.75 | 1.27 | 0.037 | 0.94 | No | z-scoreMRSA+ rep 2 ([1]; PKIS compound screen): -0.28; z-scoreMRSA+ rep 3 ([1]; PKIS compound screen): 0.06; %GFP+ rep 1 [1, 8]: 28.9%; %GFP+ rep 2 [1, 8]: 24.6%; %GFP+ rep 3 [1, 8]: 27.6%; cell death [2, 5]: No; z-scoreHeLa mean ([2]; PKIS compound screen): 0.33; z-scoreHeLa rep 1 ([2]; PKIS compound screen): -0.12; z-scoreHeLa rep 2 ([2]; PKIS compound screen): 0.0321; z-scoreHeLa rep 3 ([2]; PKIS compound screen): 1.09; cell count rep 1 [2, 12]: 5844; cell count rep 2 [2, 12]: 6056; cell count rep 3 [2, 12]: 7316
6 | Cc1ccc(C(=O)Nc2ccc(Nc3ccnc4cc(-c5ccccn5)ccc34)cc2O)cc1 [GW440146A] | 19.0 | 18.0 | 19.2 |  |  |  |  |  |  |  |  |  | 4799 | 4726 | 6030 |  |  |  |  |  | effect ([1]; Yes/No call from z-scoreMRSA+): No; hit [1, 13]: No; z-scoreMRSA+ mean [1, 14]: -1.16; z-scoreMRSA+ rep 1 [1, 14]: -1.46; z-scoreMRSA+ rep 2 [1, 14]: -1.12; z-scoreMRSA+ rep 3 [1, 14]: -0.90; cell death ([2]; Yes/No call from z-scoreHeLa): No; z-scoreHeLa mean [2, 15]: 0.38; z-scoreHeLa rep 1 [2, 15]: 0.32; z-scoreHeLa rep 2 [2, 15]: 0.33; z-scoreHeLa rep 3 [2, 15]: 0.50
7 | Cc1c2ccc(N(C)c3ccnc(Nc4cccc(S(N)(=O)=O)c4)n3)cc2nn1C [GW771127A] | 14.2 | 13.8 | 15.3 | -1.32 | -1.16 | -1.42 | -1.37 |  | No | No |  |  | 10020 | 29599 | 33795 | -1.19 | -1.53 | -0.97 | -1.07 | No | 
8 | COc1cccc(C2=C(Nc3ccc(Cl)c(C(=O)O)c3)C(=O)NC2=O)c1 [SB-390769] |  |  |  |  |  |  |  | No | No |  | 0.47 | -0.05 |  |  |  |  |  |  |  |  | z-scoreMRSA+ rep 2 ([1]; PKIS compound screen): 0.72; z-scoreMRSA+ rep 3 ([1]; PKIS compound screen): 0.73; %GFP+ rep 1 [1, 8]: 26.8%; %GFP+ rep 2 [1, 8]: 29.8%; %GFP+ rep 3 [1, 8]: 31.2%; cell death [2, 5]: No; z-scoreHeLa mean ([2]; PKIS compound screen): 1.73; z-scoreHeLa rep 1 ([2]; PKIS compound screen): 0.80; z-scoreHeLa rep 2 ([2]; PKIS compound screen): 1.87; z-scoreHeLa rep 3 ([2]; PKIS compound screen): 2.53; cell count rep 1 [2, 12]: 7373; cell count rep 2 [2, 12]: 8825; cell count rep 3 [2, 12]: 9583
9 | CS(=O)(=O)CCNCc1cc(-c2cc3c(Nc4ccc(OCc5cccc(F)c5)c(Cl)c4)ncnc3s2)cs1 [GSK300014A] | 19.5 | 21.9 | 21.6 | 0.70 | 0.52 | 1.02 | 0.55 |  | No | No |  |  | 28943 | 38150 | 46044 | 0.95 | 1.34 | 0.63 | 0.88 | No | 
10 | COc1cc(Nc2nccc(N3CCC(NC(=O)c4cc5ccccc5s4)C3)n2)cc(OC)c1OC (stereo not drawn) [GSK1379760A] | 16.3 | 17.7 | 19.1 | -0.32 | -0.49 | -0.25 | -0.21 |  | No | No |  |  | 31010 | 36298 | 43524 | 0.80 | 1.65 | 0.28 | 0.48 | No | 
11 | COc1ccc(Nc2nccc(-c3ccc(NC(=O)c4cc5cc(F)ccc5[nH]4)cc3)n2)cc1 [GSK1229496A] | 23.7 | 24.4 | 20.6 |  |  |  |  |  |  |  |  |  | 4195 | 3679 | 5039 |  |  |  |  |  | effect ([1]; Yes/No call from z-scoreMRSA+): No; hit [1, 13]: No; z-scoreMRSA+ mean [1, 14]: -0.14; z-scoreMRSA+ rep 1 [1, 14]: -0.37; z-scoreMRSA+ rep 2 [1, 14]: 0.43; z-scoreMRSA+ rep 3 [1, 14]: -0.48; cell death ([2]; Yes/No call from z-scoreHeLa): No; z-scoreHeLa mean [2, 15]: -0.24; z-scoreHeLa rep 1 [2, 15]: -0.11; z-scoreHeLa rep 2 [2, 15]: -0.48; z-scoreHeLa rep 3 [2, 15]: -0.13
